Among the data in patent publication US10125134B2 (Mirati Therapeutics, Inc., priority 2016, dated 2018) are IC50 and POC values, retold here.

As a reminder, the IC50 is the concentration needed to halve the response being measured.

Experiment [1] concerns NCI-H358 cells (express KRas G12C), Phospho-ERK. In words: Cellular inhibition of KRas G12C: Phospho-ERK in NCI-H358 cells. It is filed as cell-based. The note with it: Homo sapiens, pERK(Thr202/Tyr204) normalized with GAPDH, NCI-H358 cells, 3 hours, read-out: IC50. Summed up:
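IC50 derived by 4-parameter fit of GAPDH-normalized pERK(Thr202/Tyr204) signal, as percent of DMSO control. Signal came from in-cell immunodetection with infrared secondaries after 3 h compound exposure of KRas G12C NCI-H358 cells at 0.5% DMSO.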

Experiment [2] has as its target KRas G12C (Homo sapiens, UniProt P01116, C118S/C51S/C80L/G12C). The experiment is described as follows: KRas G12C Modification Assay (LCMS detection of covalent adduct). Format: binding. The conditions noted are these: normalized percent of control; tested at 5 μM concentration for 3 hours. The method, boiled down:
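Covalent modification was read by reverse-phase LC/MS of intact protein after compound exposure, each reaction stopped at its time point with 25 mM acetic acid. Unmodified-protein signal, taken as percent of total, was normalised to untreated protein and reported as POC.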

Structures are written as SMILES. Structures can show the parent of a compound that is named as a salt. Where two headings read alike, the source gives them in different places.

For `C=CC(=O)N1CCN(c2nc(OCCN3CCC(F)(F)CC3)nc3c2CCN(c2cc(O)cc4ccccc24)C3)CC1` [Example 109, 1-(4-(2-(2-(4,4-difluoropiperidin-1-yl)ethoxy)-7-(3-hydroxynaphthalen-1-yl)-5,6,7,8-tetrahydropyrido[3,4-d]pyrimidin-4-yl)piperazin-1-yl)prop-2-en-1-one], the IC50 in experiment [1] (NCI-H358, 3 h) was more than 1 µM. Moreover, the POC entry in experiment [2] was “C (“C”>50% POC)”.
For the molecule `C=CC(=O)N1CCN(c2nc(OC[C@@H]3CCN(C)C3)nc3c2CCN(c2cc(O)cc4ccccc24)C3)CC1` [Example 110, (R)-1-(4-(7-(3-hydroxynaphthalen-1-yl)-2-((1-methylpyrrolidin-3-yl)methoxy)-5,6,7,8-tetrahydropyrido[3,4-d]pyrimidin-4-yl)piperazin-1-yl)prop-2-en-1-one], in experiment [1] (NCI-H358, 3 h), the IC50 lay in the range of 0.0001 to 1 µM. The POC result in experiment [2] is reported as “C (“C”>50% POC)”.
Taken in the same sequence, the figures for `C=CC(=O)N1CCN(c2nc(OCCN3CCC[C@H](F)C3)nc3c2CCN(c2cc(O)cc4ccccc24)C3)CC1` [Example 111, (S)-1-(4-(2-(2-(3-fluoropiperidin-1-yl)ethoxy)-7-(3-hydroxynaphthalen-1-yl)-5,6,7,8-tetrahydropyrido[3,4-d]pyrimidin-4-yl)piperazin-1-yl)prop-2-en-1-one] were 0.0001 to 1 µM and “C (“C”>50% POC)”.
On to `C=CC(=O)N1CCN(c2nc(OCCCN3CCOCC3)nc3c2CCN(c2cc(C(F)F)cc4ccccc24)C3)CC1` [Example 112, 1-(4-(7-(3-(difluoromethyl)naphthalen-1-yl)-2-(3-morpholinopropoxy)-5,6,7,8-tetrahydropyrido[3,4-d]pyrimidin-4-yl)piperazin-1-yl)prop-2-en-1-one], for which the IC50 in experiment [1] was more than 1 µM. For the same molecule, the POC entry in experiment [2] was “A (“A”≤25% POC)”.
`C=CC(=O)N1CCN(c2ncnc3c2CC(=O)N(c2cc(O)cc4ccccc24)C3)CC1` [Example 113, 4-(4-acryloylpiperazin-1-yl)-7-(3-hydroxynaphthalen-1-yl)-7,8-dihydropyrido[3,4-d]pyrimidin-6(5H)-one]: the concentration for half-maximal inhibition (IC50) in experiment [1] is more than 1 µM. Besides, the POC result in experiment [2] is “C (“C”>50% POC)”.
Taken in the same sequence, the figures for `C=CC(=O)N1CC2(C1)CN(c1ncnc3c1CC(=O)N(c1cc(O)cc4ccccc14)C3)C2` [Example 114, 4-(6-acryloyl-2,6-diazaspiro[3.3]heptan-2-yl)-7-(3-hydroxynaphthalen-1-yl)-7,8-dihydropyrido[3,4-d]pyrimidin-6(5H)-one] were more than 1 µM and “B (“B”>25% POC−≤50% POC)”.
The matching figures for `C=CC(=O)N1CCN(c2nc(O[C@H](C)CN(C)C)nc3c2CCN(c2cc(O)cc4ccccc24)C3)[C@@H](C)C1` [Example 115, 1-((S)-4-(2-(((R)-1-(dimethylamino)propan-2-yl)oxy)-7-(3-hydroxynaphthalen-1-yl)-5,6,7,8-tetrahydropyrido[3,4-d]pyrimidin-4-yl)-3-methylpiperazin-1-yl)prop-2-en-1-one]: 0.0001 to 1 µM and “C (“C”>50% POC)”.
Regarding `C=CC(=O)N1CCN(c2nc(OCCN(C)C)nc3c2CCN(c2cc(O)cc4ccccc24)C3)[C@@H](C)C1` [Example 116, (S)-1-(4-(2-(2-(dimethylamino)ethoxy)-7-(3-hydroxynaphthalen-1-yl)-5,6,7,8-tetrahydropyrido[3,4-d]pyrimidin-4-yl)-3-methylpiperazin-1-yl)prop-2-en-1-one], the 50% inhibitory concentration (IC50) in experiment [1] (NCI-H358, 3 h) is 0.0001 to 1 µM. In addition, the POC entry in experiment [2] was “C (“C”>50% POC)”.
The matching figures for `C=CC(=O)N1CCN(c2nc(OCCN3CCOCC3)nc3c2CCN(c2cc(O)cc4ccccc24)C3)CC1` [Example 117, 1-(4-(7-(3-hydroxynaphthalen-1-yl)-2-(2-morpholinoethoxy)-5,6,7,8-tetrahydropyrido[3,4-d]pyrimidin-4-yl)piperazin-1-yl)prop-2-en-1-one]: more than 1 µM and “C (“C”>50% POC)”.
In the case of `C=CC(=O)N1CCN(c2nc(N3CCOCC3)nc3c2CCN(c2cc(O)cc4ccccc24)C3)CC1` [Example 118, 1-(4-(7-(3-hydroxynaphthalen-1-yl)-2-morpholino-5,6,7,8-tetrahydropyrido[3,4-d]pyrimidin-4-yl)piperazin-1-yl)prop-2-en-1-one], the IC50 in experiment [1] (NCI-H358, 3 h) is more than 1 µM. Further, the POC result in experiment [2] is on record as “A (“A”≤25% POC)”.
Taken in the same sequence, the figures for `C=CC(=O)N1CCN(c2nc(N3CCCC3)nc3c2CCN(c2cc(O)cc4ccccc24)C3)CC1` [Example 119, 1-(4-(7-(3-hydroxynaphthalen-1-yl)-2-(pyrrolidin-1-yl)-5,6,7,8-tetrahydropyrido[3,4-d]pyrimidin-4-yl)piperazin-1-yl)prop-2-en-1-one] were more than 1 µM and “B (“B”>25% POC−≤50% POC)”.
The matching figures for `C=CC(=O)N1CCN(c2nc(O[C@H](C)CN3CCCC3)nc3c2CCN(c2cc(O)cc4ccccc24)C3)CC1` [Example 120, (R)-1-(4-(7-(3-hydroxynaphthalen-1-yl)-2-((1-(pyrrolidin-1-yl)propan-2-yl)oxy)-5,6,7,8-tetrahydropyrido[3,4-d]pyrimidin-4-yl)piperazin-1-yl)prop-2-en-1-one]: 0.0001 to 1 µM and “C (“C”>50% POC)”.
With `C=CC(=O)N1CCN(c2nc(OCCCN3CCOCC3)nc3c2CCN(c2cc(O)cc4ccccc24)C3=O)CC1` [Example 121, 4-(4-acryloylpiperazin-1-yl)-7-(3-hydroxynaphthalen-1-yl)-2-(3-morpholinopropoxy)-6,7-dihydropyrido[3,4-d]pyrimidin-8(5H)-one], the IC50 in experiment [1] is more than 1 µM. In experiment [2], the POC result is on record as “C (“C”>50% POC)”.
The matching figures for `C[C@H](CN(C)C)Oc1nc2c(c(N3CCN(C(=O)/C=C/CN(C)C)CC3)n1)CCN(c1cc(O)cc3ccccc13)C2` [Example 122, (R,E)-4-(dimethylamino)-1-(4-(2-((1-(dimethylamino)propan-2-yl)oxy)-7-(3-hydroxynaphthalen-1-yl)-5,6,7,8-tetrahydropyrido[3,4-d]pyrimidin-4-yl)piperazin-1-yl)but-2-en-1-one bis-trifluoroacetate]: more than 1 µM and “C (“C”>50% POC)”.
In the case of `C=CC(=O)N1CCN(c2nc(OCC(O)CN3CCOCC3)nc3c2CCN(c2cc(O)cc4ccccc24)C3)CC1` (stereo not drawn) [Example 123, 1-(4-(2-(2-hydroxy-3-morpholinopropoxy)-7-(3-hydroxynaphthalen-1-yl)-5,6,7,8-tetrahydropyrido[3,4-d]pyrimidin-4-yl)piperazin-1-yl)prop-2-en-1-one], the concentration for half-maximal inhibition (IC50) in experiment [1] (NCI-H358, 3 h) was more than 1 µM. Moreover, in experiment [2], the POC entry is “A (“A”≤25% POC)”.
Consider `C=CC(=O)N1CCN(c2nc(O[C@H](C)CN(C)C)nc3c2CCN(c2cc(O)c(F)c4ccccc24)C3)CC1` [Example 124, (R)-1-(4-(2-((1-(dimethylamino)propan-2-yl)oxy)-7-(4-fluoro-3-hydroxynaphthalen-1-yl)-5,6,7,8-tetrahydropyrido[3,4-d]pyrimidin-4-yl)piperazin-1-yl)prop-2-en-1-one], for which the 50% inhibitory concentration (IC50) in experiment [1] is more than 1 µM. Also, the POC result in experiment [2] is given as “C (“C”>50% POC)”.
In the case of `C=CC(=O)N1CCN(c2nc(O[C@H](C)CN(C)C)nc3c2CCN(c2cc(O)c(Cl)c4ccccc24)C3)CC1` [Example 125, (R)-1-(4-(7-(4-chloro-3-hydroxynaphthalen-1-yl)-2-((1-(dimethylamino)propan-2-yl)oxy)-5,6,7,8-tetrahydropyrido[3,4-d]pyrimidin-4-yl)piperazin-1-yl)prop-2-en-1-one], in experiment [1], the 50% inhibitory concentration (IC50) is more than 1 µM. Moreover, the POC result in experiment [2] is recorded as “A (“A”≤25% POC)”.
In the case of `C=CC(=O)N1CCN(c2nc(OCCc3ccccn3)nc3c2CCN(c2cc(O)cc4ccccc24)C3)CC1` [Example 126, 1-(4-(7-(3-hydroxynaphthalen-1-yl)-2-(2-(pyridin-2-yl)ethoxy)-5,6,7,8-tetrahydropyrido[3,4-d]pyrimidin-4-yl)piperazin 1-yl)prop-2-en-1-one trifluoroacetate], the IC50 in experiment [1] (NCI-H358, 3 h) was more than 1 µM. In addition, in experiment [2], the POC entry was “C (“C”>50% POC)”.
Taken in the same sequence, the figures for `C=CC(=O)N1CCN(c2nc(N3CC(N(C)C)C3)nc3c2CCN(c2cc(O)cc4ccccc24)C3)CC1` [Example 128, 1-(4-(2-(3-(dimethylamino)azetidin-1-yl)-7-(3-hydroxynaphthalen-1-yl)-5,6,7,8-tetrahydropyrido[3,4-d]pyrimidin-4-yl)piperazin-1-yl)prop-2-en-1-one] were more than 1 µM and “C (“C”>50% POC)”.
Taken in the same sequence, the figures for `C=CC(=O)N1CCN(c2nc(O[C@H](C)[C@H]3CCCN3C)nc3c2CCN(c2cc(O)cc4ccccc24)C3)CC1` [Example 129, 1-[4-[7-(3-hydroxy-1-naphthyl)-2-[(1R)-1-[(2R)-1-methylpyrrolidin-2-yl]ethoxy]-6,8-dihydro-5H-pyrido[3,4-d]pyrimidin-4-yl]piperazin-1-yl]prop-2-en-1-one] were 0.0001 to 1 µM and “C (“C”>50% POC)”.
Taken in the same sequence, the figures for `C=CC(=O)N1CCN(c2nc(O[C@@H](C)[C@@H]3CCCN3C)nc3c2CCN(c2cc(O)cc4ccccc24)C3)CC1` [Example 130, 1-(4-(7-(3-hydroxynaphthalen-1-yl)-2-((S)-1-((S)-1-methylpyrrolidin-2-yl)ethoxy)-5,6,7,8-tetrahydropyrido[3,4-d]pyrimidin-4-yl)piperazin-1-yl)prop-2-en-1-one] were 0.0001 to 1 µM and “C (“C”>50% POC)”.
